# From ChEMBL document CHEMBL3885881, “DrugMatrix”
# Organism: Rattus norvegicus
# Assay: DrugMatrix - Regimen: Daily Repeat
# Assay type: toxicity, organism-based, Sprague-Dawley
# Set-up: regimen Daily Repeat, gender Male, age 6-8 weeks
# Conditions: in vivo, po, route oral GAVAGE, vehicle 100 % WATER; for ABSOLUTE BASOPHIL / ABSOLUTE EOSINOPHIL / ABSOLUTE LYMPHOCYTE / ABSOLUTE MONOCYTE / ABSOLUTE SEGMENTED NEUTROPHIL / BASOPHIL / EOSINOPHIL / ERYTHROCYTE COUNT / HEMATOCRIT / HEMOGLOBIN / LEUKOCYTE COUNT / LYMPHOCYTE / MEAN CORPUSCULAR HEMOGLOBIN / MEAN CORPUSCULAR HEMOGLOBIN CONCENTRATION / MEAN CORPUSCULAR VOLUME / MONOCYTE / NEUTROPHIL / NUCLEATED RED BLOOD CELLS / PLATELET COUNT: tissue Blood; for ALANINE AMINOTRANSFERASE / ALBUMIN / ALKALINE PHOSPHATASE / ASPARTATE AMINOTRANSFERASE / BLOOD UREA NITROGEN / CARBON DIOXIDE / CHLORIDE / CHOLESTEROL / CREATINE PHOSPHOKINASE / CREATININE / GLUCOSE / LACTATE DEHYDROGENASE / LIPASE / PHOSPHORUS / POTASSIUM / SODIUM / TOTAL BILIRUBIN / TOTAL PROTEIN / URIC ACID: tissue Plasma
# [1] = 27 mg/kg, 72 h, dose level High, time 3 day
# [2] = 27 mg/kg, 120 h, dose level High, time 5 day
# [3] = […], 72 h, dose 2.7 mg/Kg, dose level Low, time 3 day
# [4] = […], 120 h, dose 2.7 mg/Kg, dose level Low, time 5 day
structure (smiles),measurement,setting,value
NNCCc1ccccc1 [PHENELZINE],ABSOLUTE BASOPHIL,[1],0 CELLS/uL
same,ABSOLUTE EOSINOPHIL,[1],54.67 CELLS/uL
same,ABSOLUTE LYMPHOCYTE,[1],7424 CELLS/uL
same,ABSOLUTE MONOCYTE,[1],106.67 CELLS/uL
same,ABSOLUTE SEGMENTED NEUTROPHIL,[1],481.33 CELLS/uL
same,BASOPHIL,[1],0%
same,EOSINOPHIL,[1],0.67%
same,ERYTHROCYTE COUNT,[1],5.49 x10E6/uL
same,HEMATOCRIT,[1],35.1%
same,HEMOGLOBIN,[1],14.03 G/DL
same,LEUKOCYTE COUNT,[1],8.07 x10E3/uL
same,LYMPHOCYTE,[1],92%
same,MEAN CORPUSCULAR HEMOGLOBIN,[1],25.57 pg
same,MEAN CORPUSCULAR HEMOGLOBIN CONCENTRATION,[1],39.97 G/DL
same,MEAN CORPUSCULAR VOLUME,[1],63.93 fL
same,MONOCYTE,[1],1.33%
same,NEUTROPHIL,[1],6%
same,NUCLEATED RED BLOOD CELLS,[1],0 /100WBC
same,PLATELET COUNT,[1],1341.67 x10E3/uL
same,ALANINE AMINOTRANSFERASE,[1],25.67 u/L
same,ALBUMIN,[1],4.5 G/DL
same,ALKALINE PHOSPHATASE,[1],356.33 u/L
same,ASPARTATE AMINOTRANSFERASE,[1],75.67 u/L
same,BLOOD UREA NITROGEN,[1],16.67 mg/dL
same,CARBON DIOXIDE,[1],31 mmol/L
same,CHLORIDE,[1],102.33 MEQ/L
same,CHOLESTEROL,[1],78.33 mg/dL
same,CREATINE PHOSPHOKINASE,[1],265 u/L
same,CREATININE,[1],0.16 mg/dL
same,GLUCOSE,[1],143 mg/dL
same,LACTATE DEHYDROGENASE,[1],131.33 u/L
same,LIPASE,[1],9.33 u/L
same,PHOSPHORUS,[1],11.73 mg/dL
same,POTASSIUM,[1],6.74 MEQ/L
same,SODIUM,[1],145.43 MEQ/L
same,TOTAL BILIRUBIN,[1],0.23 mg/dL
same,TOTAL PROTEIN,[1],6.07 G/DL
same,URIC ACID,[1],1.23 mg/dL
same,ABSOLUTE BASOPHIL,[2],0 CELLS/uL
same,ABSOLUTE EOSINOPHIL,[2],69.33 CELLS/uL
same,ABSOLUTE LYMPHOCYTE,[2],8987.33 CELLS/uL
same,ABSOLUTE MONOCYTE,[2],88.33 CELLS/uL
same,ABSOLUTE SEGMENTED NEUTROPHIL,[2],388.33 CELLS/uL
same,BASOPHIL,[2],0%
same,EOSINOPHIL,[2],0.67%
same,ERYTHROCYTE COUNT,[2],6.17 x10E6/uL
same,HEMATOCRIT,[2],39.07%
same,HEMOGLOBIN,[2],15.3 G/DL
same,LEUKOCYTE COUNT,[2],9.53 x10E3/uL
same,LYMPHOCYTE,[2],94.33%
same,MEAN CORPUSCULAR HEMOGLOBIN,[2],24.8 pg
same,MEAN CORPUSCULAR HEMOGLOBIN CONCENTRATION,[2],39.17 G/DL
same,MEAN CORPUSCULAR VOLUME,[2],63.33 fL
same,MONOCYTE,[2],1%
same,NEUTROPHIL,[2],4%
same,NUCLEATED RED BLOOD CELLS,[2],0 /100WBC
same,PLATELET COUNT,[2],1357.33 x10E3/uL
same,ALANINE AMINOTRANSFERASE,[2],18.67 u/L
same,ALBUMIN,[2],4.37 G/DL
same,ALKALINE PHOSPHATASE,[2],271 u/L
same,ASPARTATE AMINOTRANSFERASE,[2],103.33 u/L
same,BLOOD UREA NITROGEN,[2],26 mg/dL
same,CARBON DIOXIDE,[2],23 mmol/L
same,CHLORIDE,[2],110 MEQ/L
same,CHOLESTEROL,[2],68.33 mg/dL
same,CREATINE PHOSPHOKINASE,[2],320.33 u/L
same,CREATININE,[2],0.2 mg/dL
same,GLUCOSE,[2],155 mg/dL
same,LACTATE DEHYDROGENASE,[2],594.67 u/L
same,LIPASE,[2],10 u/L
same,PHOSPHORUS,[2],11.2 mg/dL
same,POTASSIUM,[2],5.16 MEQ/L
same,SODIUM,[2],150.7 MEQ/L
same,TOTAL BILIRUBIN,[2],0.17 mg/dL
same,TOTAL PROTEIN,[2],6 G/DL
same,URIC ACID,[2],1.43 mg/dL
same,ABSOLUTE BASOPHIL,[3],0 CELLS/uL
same,ABSOLUTE EOSINOPHIL,[3],60.67 CELLS/uL
same,ABSOLUTE LYMPHOCYTE,[3],9104.67 CELLS/uL
same,ABSOLUTE MONOCYTE,[3],151.67 CELLS/uL
same,ABSOLUTE SEGMENTED NEUTROPHIL,[3],949.67 CELLS/uL
same,BASOPHIL,[3],0%
same,EOSINOPHIL,[3],0.67%
same,ERYTHROCYTE COUNT,[3],5.11 x10E6/uL
same,HEMATOCRIT,[3],32.4%
same,HEMOGLOBIN,[3],12.97 G/DL
same,LEUKOCYTE COUNT,[3],10.27 x10E3/uL
same,LYMPHOCYTE,[3],88%
same,MEAN CORPUSCULAR HEMOGLOBIN,[3],25.37 pg
same,MEAN CORPUSCULAR HEMOGLOBIN CONCENTRATION,[3],40.03 G/DL
same,MEAN CORPUSCULAR VOLUME,[3],63.37 fL
same,MONOCYTE,[3],1.67%
same,NEUTROPHIL,[3],9.67%
same,NUCLEATED RED BLOOD CELLS,[3],0 /100WBC
same,PLATELET COUNT,[3],935.33 x10E3/uL
same,ALANINE AMINOTRANSFERASE,[3],55.33 u/L
same,ALBUMIN,[3],4.33 G/DL
same,ALKALINE PHOSPHATASE,[3],325.33 u/L
same,ASPARTATE AMINOTRANSFERASE,[3],98 u/L
same,BLOOD UREA NITROGEN,[3],15.33 mg/dL
same,CARBON DIOXIDE,[3],33 mmol/L
same,CHLORIDE,[3],101.67 MEQ/L
same,CHOLESTEROL,[3],78.33 mg/dL
same,CREATINE PHOSPHOKINASE,[3],665.67 u/L
same,CREATININE,[3],0.17 mg/dL
same,GLUCOSE,[3],155 mg/dL
same,LACTATE DEHYDROGENASE,[3],181.67 u/L
same,LIPASE,[3],9 u/L
same,PHOSPHORUS,[3],12.03 mg/dL
same,POTASSIUM,[3],6.23 MEQ/L
same,SODIUM,[3],144.83 MEQ/L
same,TOTAL BILIRUBIN,[3],0.17 mg/dL
same,TOTAL PROTEIN,[3],5.93 G/DL
same,URIC ACID,[3],1.23 mg/dL
same,ABSOLUTE BASOPHIL,[4],0 CELLS/uL
same,ABSOLUTE EOSINOPHIL,[4],42 CELLS/uL
same,ABSOLUTE LYMPHOCYTE,[4],10324 CELLS/uL
same,ABSOLUTE MONOCYTE,[4],37 CELLS/uL
same,ABSOLUTE SEGMENTED NEUTROPHIL,[4],997 CELLS/uL
same,BASOPHIL,[4],0%
same,EOSINOPHIL,[4],0.33%
same,ERYTHROCYTE COUNT,[4],5.61 x10E6/uL
same,HEMATOCRIT,[4],36.03%
same,HEMOGLOBIN,[4],14.1 G/DL
same,LEUKOCYTE COUNT,[4],11.4 x10E3/uL
same,LYMPHOCYTE,[4],90.67%
same,MEAN CORPUSCULAR HEMOGLOBIN,[4],25.13 pg
same,MEAN CORPUSCULAR HEMOGLOBIN CONCENTRATION,[4],39.2 G/DL
same,MEAN CORPUSCULAR VOLUME,[4],64.23 fL
same,MONOCYTE,[4],0.33%
same,NEUTROPHIL,[4],8.67%
same,NUCLEATED RED BLOOD CELLS,[4],0 /100WBC
same,PLATELET COUNT,[4],1075 x10E3/uL
same,ALANINE AMINOTRANSFERASE,[4],41.33 u/L
same,ALBUMIN,[4],4.57 G/DL
same,ALKALINE PHOSPHATASE,[4],403 u/L
same,ASPARTATE AMINOTRANSFERASE,[4],105.67 u/L
same,BLOOD UREA NITROGEN,[4],21.67 mg/dL
same,CARBON DIOXIDE,[4],25.67 mmol/L
same,CHLORIDE,[4],101.67 MEQ/L
same,CHOLESTEROL,[4],67 mg/dL
same,CREATINE PHOSPHOKINASE,[4],480.33 u/L
same,CREATININE,[4],0.33 mg/dL
same,GLUCOSE,[4],130.33 mg/dL
same,LACTATE DEHYDROGENASE,[4],623.33 u/L
same,LIPASE,[4],11.33 u/L
same,PHOSPHORUS,[4],12.7 mg/dL
same,POTASSIUM,[4],6.78 MEQ/L
same,SODIUM,[4],142.87 MEQ/L
same,TOTAL BILIRUBIN,[4],0.27 mg/dL
same,TOTAL PROTEIN,[4],6.3 G/DL
same,URIC ACID,[4],1.63 mg/dL
